The nature of data set [1]: Reversal of P-gp-mediated multidrug resistance in human KBV cells assessed as potentiation of irinotecan-induced cytotoxicity by measuring irinotecan IC50 at 5 uM after 72 hrs by MTT assay (Rvb = 49.2 +/- 0.46 nM). In general terms: Formazan colour is commonly taken as a measure of viable cells.
The nature of data set [2]: Reversal of P-gp-mediated multidrug resistance in human KBV cells assessed as potentiation of irinotecan-induced cytotoxicity by measuring irinotecan IC50 at 10 uM after 72 hrs by MTT assay (Rvb = 49.2 +/- 0.46 nM).
A short description of data set [3]: Reversal of P-gp-mediated multidrug resistance in human KBV cells assessed as potentiation of paclitaxel-induced cytotoxicity by measuring paclitaxel IC50 at 5 uM after 72 hrs by MTT assay (Rvb = 352.31 +/- 10.9 nM).
A short description of data set [4]: Reversal of P-gp-mediated multidrug resistance in human KBV cells assessed as potentiation of vincristine-induced cytotoxicity by measuring vincristine IC50 at 5 uM after 72 hrs by MTT assay (Rvb = 2.92 +/- 0.31 nM).
A short description of data set [5]: Reversal of P-gp-mediated multidrug resistance in human KBV cells assessed as potentiation of paclitaxel-induced cytotoxicity by measuring paclitaxel IC50 at 10 uM after 72 hrs by MTT assay (Rvb = 352.31 +/- 10.9 nM).
The nature of data set [6]: Reversal of P-gp-mediated multidrug resistance in human KBV cells assessed as potentiation of vincristine-induced cytotoxicity by measuring vincristine IC50 at 10 uM after 72 hrs by MTT assay (Rvb = 2.92 +/- 0.31 nM).

One may read the IC50 as the point on the concentration scale where inhibition reaches its midpoint.

Molecules are shown by their SMILES.

As to `CC(=O)O[C@H]1C[C@@]2(C)[C@@H](C[C@@H](O)[C@H]3[C@@]4(C)CC[C@@H](O)[C@@H](C)[C@@H]4CC[C@@]32C)/C1=C(\CCC=C(C)C)C(=O)OCc1ccccc1`, the IC50 was determined as 37200 nM in data set [1]; 16200 nM in data set [2]; 17 nM in data set [3]; 144 nM in data set [4]; 7 nM in data set [5]; 92 nM in data set [6].

The values above are taken from BindingDB's records for doi:10.1016/j.ejmech.2019.111668 (Yantai University, 2019).
